Molecular target: HCV-NS5BΔ21 RdRp genotype 1b (strain J4) (Hepatitis C virus genotype 1b, UniProt O92972)
Experiment: biochemical
Design: His6 (N); made in house; host or cells: Escherichia coli C41(DE3)
Conditions: 20 μM compound; for Slope of fluorescence increase: no treatment control slope 62.0
Protocol: The HCV RdRps (NS5B protein) from reference strains H77 (genotype 1a), J4 (genotype 1b) and JFH1 (genotype 2a), truncated of their 21 C-terminal amino acids to ensure solubility (NS5BΔ21) and carrying a hexahistidine tag (His6-Tag) at their N-terminus, were expressed in Escherichia coli C41(DE3) and purified as previously described ([20]). Briefly, cultures were grown at 37°C for ∼1 h and induced with 1 mM isopropyl β-D-thiogalactoside for 4 h at 37°C. […] After sonication, cell lysates were clarified by centrifugation, and chromatography was performed on a Ni-NTA column (Qiagen, Hilden, Germany). The bound protein was eluted in 1 ml fractions with a buffer containing 50 mM NaH2PO4 (pH 8.0), 500 mM NaCl and 250 mM imidazole. NS5BΔ21-enriched fractions were selected using a Bradford colorimetric assay, and HCV-NS5BΔ21 purity was determined by Coomassie-stained sodium dodecyl sulfate-polyacrylamide electrophoresis gel (SDS-PAGE) analysis. Purified NS5BΔ21 fractions were pooled and dialyzed against a buffer containing 5 mM Tris (pH 7.5), 0.2 M sodium acetate, 1 mM DTT, 1 mM ethylenediaminetetraacetic acid (EDTA) and 10% glycerol.
The cell-free HCV-NS5BΔ21 polymerase assay is based on the real-time measurement of the amount of double-stranded RNA synthesized in the presence of HCV-NS5BΔ21, a homopolymeric RNA template (poly U or poly C, GE Healthcare, Chalfont St. Giles, UK) and the corresponding nucleotide, by means of an intercalating agent (SYBR® Green, Applied Biosystems, Carlsbad, CA, USA), as previously described ([20]). For screening, HCV-NS5BΔ21 polymerase activity was quantified by the slope of fluorescence increase in the presence of 20 μM of the tested flavonoid compounds and compared with the control reaction containing no inhibitor. […] The reported values are the average of three independent measurements performed in duplicate. For kinetics analysis, initial reaction velocities were measured at different nucleotide (adenosine triphosphate (ATP) or GTP) and studied compound concentrations, without pre-incubation and in the presence of 50 μg/ml of the corresponding homopolymeric RNA template (Poly U and Poly C, respectively). The concentration of NS5BΔ21 (J4 strain, genotype 1b) in the reaction was 0.1 mg/ml. Kinetics data were graphically represented as double reciprocal plots. Data points were fitted by linear regression to identify the inhibition mode of the compound.

For O=C1c2ccc(O)cc2O[C@H](c2ccc(O)c(O)c2)[C@H]1O [Fustin], the inhibition at 20 µM was 14.5% and the “Slope of fluorescence increase” value was 53.0.

With O=C1c2ccc(O)cc2OC(c2cc(O)c(O)c(O)c2)C1O (stereo in doubt) [Dihydrorobinetin] the “% HCV-NS5BΔ21 inhibition” value was 11.0% and the “Slope of fluorescence increase” value was 55.2.

With O=c1cc(-c2ccc(O)cc2)oc2cc(O)c(O)c(O)c12 [Scutellarein] the inhibition at 20 µM was 67.4% and the “Slope of fluorescence increase” value was 20.2.

For O=C1CC(c2ccccc2)Oc2ccc(O)cc21 (stereo not shown) [6-Hydroxyflavanone], the inhibition at 20 µM was 4.1% and the “Slope of fluorescence increase” value was 59.5.

For O=c1c(O)c(-c2cc(O)c(O)c(O)c2)oc2cc(O)ccc12 [Robinetin], the inhibition at 20 µM was 55.9% and the “Slope of fluorescence increase” value was 27.4.

O=c1c(O)c(-c2ccc(O)cc2O)oc2cc(O)cc(O)c12 [Morin] was tested, and the inhibition at 20 µM was 69.3% and the “Slope of fluorescence increase” value was 19.0.

In the case of O=c1cc(-c2ccc(O)c(O)c2)oc2c(O)c(O)ccc12 [3’.4’.7.8-Tetrahydroxyflavone], the “% HCV-NS5BΔ21 inhibition” value is reported as 30.9% and the “Slope of fluorescence increase” value is reported as 42.9.

In the case of O=c1c(O)c(-c2ccccc2)oc2cc(O)ccc12 [7-hydroxyflavonol], the inhibition at 20 µM is reported as 71.3% and the “Slope of fluorescence increase” value is reported as 17.8.

For O=C1C[C@@H](c2ccc(O)cc2)Oc2cc(O)ccc21 [Liquiritigenin], the “% HCV-NS5BΔ21 inhibition” value was 6.1% and the “Slope of fluorescence increase” value was 58.3.

For Oc1cc(O)c2c(c1)O[C@H](c1ccc(O)c(O)c1)[C@@H](O)C2 (racemic) [DL-Catechin], the “% HCV-NS5BΔ21 inhibition” value was 17.7% and the “Slope of fluorescence increase” value was 51.1.

O=c1cc(-c2ccc(O)cc2)oc2cc(O)cc(O)c12 [Apigenin] was tested, and the inhibition at 20 µM was 62.5% and the “Slope of fluorescence increase” value was 23.3.

With C[C@@H]1O[C@@H](OC[C@H]2O[C@@H](Oc3c(-c4ccc(O)c(O)c4)oc4cc(O)cc(O)c4c3=O)[C@H](O)[C@@H](O)[C@@H]2O)[C@H](O)[C@H](O)[C@H]1O [Rutin] the inhibition at 20 µM was 30.3% and the “Slope of fluorescence increase” value was 43.2.

O=c1c(O)c(-c2ccccc2O)oc2cc(O)cc(O)c12 [Datiscetin] was tested, and the inhibition at 20 µM was 70.5% and the “Slope of fluorescence increase” value was 18.3.

For O=c1cc(-c2ccccc2)oc2cc(O)c(O)cc12 [6.7 Dihydroxyflavone], the “% HCV-NS5BΔ21 inhibition” value was 37.4% and the “Slope of fluorescence increase” value was 38.8.

For O=c1c(O)c(-c2ccccc2)oc2cc(O)cc(O)c12 [Galangin], the inhibition at 20 µM was 80.8% and the “Slope of fluorescence increase” value was 11.9.

In the case of O=c1c(-c2ccc(O)cc2)coc2cc(O)cc(O)c12 [Genistein], the inhibition at 20 µM is reported as 13.1% and the “Slope of fluorescence increase” value is reported as 53.9.

In the case of O=C1C[C@@H](c2ccc(O)cc2)Oc2cc(O)cc(O)c21 [Naringenin], the inhibition at 20 µM is reported as 6% and the “Slope of fluorescence increase” value is reported as 58.3.

With COc1cc(O)c2c(=O)c(OC)c(-c3ccc(OC)c(OC)c3)oc2c1 [Quercetin 3.7.3’.4’ tétramethylether] the “% HCV-NS5BΔ21 inhibition” value was 14.5% and the “Slope of fluorescence increase” value was 53.0.

For O=C1CC(c2ccccc2)Oc2ccccc21 (stereo not shown) [Flavanone], the inhibition at 20 µM was 7.5% and the “Slope of fluorescence increase” value was 57.4.

O=c1cc(-c2ccccc2)oc2c(O)c(O)ccc12 [7.8 Dihydroxyflavone] was tested, and the “% HCV-NS5BΔ21 inhibition” value was 30.8% and the “Slope of fluorescence increase” value was 42.9.

With O=C1CC(c2ccc(O)cc2)Oc2ccccc21 (stereo not shown) [4’-Hydroxyflavanone] the inhibition at 20 µM was 9.3% and the “Slope of fluorescence increase” value was 56.3.

O=c1cc(-c2cc(O)c(O)c(O)c2)oc2cc(O)cc(O)c12 [Tricetin] was tested, and the inhibition at 20 µM was 69.5% and the “Slope of fluorescence increase” value was 18.9.

O=c1cc(-c2ccc(O)cc2)oc2cc(O)ccc12 [7.4’-Dihydroxyflavone] was tested, and the “% HCV-NS5BΔ21 inhibition” value was 25.7% and the “Slope of fluorescence increase” value was 46.1.

COc1cc(-c2oc3cc(O)cc(O)c3c(=O)c2O)ccc1O [Isorhamnetin] was tested, and the inhibition at 20 µM was 77.6% and the “Slope of fluorescence increase” value was 13.9.

O=c1cc(-c2ccccc2)oc2c(O)c(O)cc(O)c12 [5.7.8-Trihydroxyflavone] was tested, and the “% HCV-NS5BΔ21 inhibition” value was 47.4% and the “Slope of fluorescence increase” value was 32.6.

O=c1c(O)c(-c2ccc(O)c(O)c2)oc2cc(O)ccc12 [Fisetin] was tested, and the inhibition at 20 µM was 65.8% and the “Slope of fluorescence increase” value was 21.2.

For O=c1c(O)c(-c2ccc(O)c(O)c2)oc2cc(O)cc(O)c12 [Quercetin], the inhibition at 20 µM was 83.7% and the “Slope of fluorescence increase” value was 10.1.

For O=c1c(O[C@@H]2O[C@H](CO)[C@@H](O)[C@H](O)[C@H]2O)c(-c2ccc(O)c(O)c2)oc2cc(O)cc(O)c12 [Quercetin-3-O glucopyranoside], the “% HCV-NS5BΔ21 inhibition” value was 25.9% and the “Slope of fluorescence increase” value was 46.0.

For O=c1cc(-c2ccccc2)oc2cc(O)c(O)c(O)c12 [Baicalein], the inhibition at 20 µM was 61.8% and the “Slope of fluorescence increase” value was 23.7.

O=c1c(O)c(-c2ccc(O)c(O)c2)oc2c(O)c(O)cc(O)c12 [Gossypetin] was tested, and the inhibition at 20 µM was 74.6% and the “Slope of fluorescence increase” value was 15.8.

O=c1cc(-c2ccccc2)oc2cccc(O)c12 [5-hydroxyflavone] was tested, and the inhibition at 20 µM was 14.5% and the “Slope of fluorescence increase” value was 53.0.

For O=c1cc(-c2ccccc2)oc2ccccc12 [Flavone], the inhibition at 20 µM was 13.1% and the “Slope of fluorescence increase” value was 53.9.

In the case of O=c1c(O)c(-c2ccc(O)cc2)oc2cc(O)cc(O)c12 [Kaempferol], the inhibition at 20 µM is reported as 74.7% and the “Slope of fluorescence increase” value is reported as 15.7.

With COc1cc(OC)c2c(=O)c(OC)c(-c3ccc(OC)c(OC)c3)oc2c1 [Quercetin 3.5.7.3’.4’ pentamethylether] the “% HCV-NS5BΔ21 inhibition” value was 4.0% and the “Slope of fluorescence increase” value was 59.6.

In the case of O=c1c(O)c(-c2ccc(O)cc2)oc2cc(O)ccc12 [5-Deoxykampferol], the “% HCV-NS5BΔ21 inhibition” value (20 µM) is reported as 63.9% and the “Slope of fluorescence increase” value is reported as 22.4.

O=c1cc(-c2ccc(O)c(O)c2)oc2cc(O)cc(O)c12 [Luteolin] was tested, and the inhibition at 20 µM was 81.7% and the “Slope of fluorescence increase” value was 11.4.

For O=c1cc(-c2ccc(O)c(O)c2)oc2ccccc12 [3’.4’-Dihydroxyflavone], the “% HCV-NS5BΔ21 inhibition” value was 45.4% and the “Slope of fluorescence increase” value was 33.9.

O=c1c(O)c(-c2ccc(O)c(O)c2)oc2cc(O[C@@H]3O[C@H](CO)[C@@H](O)[C@H](O)[C@H]3O)c(O)c(O)c12 [Quercetagetin-7-O glucoside] was tested, and the “% HCV-NS5BΔ21 inhibition” value was 42.5% and the “Slope of fluorescence increase” value was 35.7.

In the case of O=c1cc(-c2ccccc2)oc2ccc(O)cc12 [6-Hydroxyflavone], the inhibition at 20 µM is reported as 18.5% and the “Slope of fluorescence increase” value is reported as 50.6.

For O=c1c(O)c(-c2cc(O)c(O)c(O)c2)oc2cc(O)cc(O)c12 [Myricetin], the inhibition at 20 µM was 79.2% and the “Slope of fluorescence increase” value was 12.9.

With O=c1c(O[C@@H]2O[C@H](CO)[C@H](O)[C@H](O)[C@H]2O)c(-c2ccc(O)c(O)c2)oc2cc(O)cc(O)c12 [Hyperoside] the inhibition at 20 µM was 28.1% and the “Slope of fluorescence increase” value was 44.6.

From PMC4132742, “Inhibition of RNA binding to hepatitis C virus RNA-dependent RNA polymerase: a new mechanism for antiviral intervention” (Nucleic Acids Research, 2014)
